According to US20260364080A1, “PYRAZOLO-PYRIMIDINONE COMPOUNDS FOR USE IN METHODS OF INHIBITING WEE1 A KINASE” (Acrivon Therapeutics, Inc., priority 2023, published 2026):
pEC50, pIC50: −log10 of the molar value. Like-named read-outs stand apart in the source and are kept apart here.

Key:
[1] = molecular target: T1, recombinant human Wee1A kinase (Homo sapiens, UniProt P30291); assay: Wee1A kinase binding assay (LanthaScreen Eu time-resolved FRET)
T1 construct: full length Wee1 kinase was expressed by baculovirus in insect cells; purchased Invitrogen PV3817; host or cells: insect cells (baculovirus)
T1 sequence (P30291 whole entry): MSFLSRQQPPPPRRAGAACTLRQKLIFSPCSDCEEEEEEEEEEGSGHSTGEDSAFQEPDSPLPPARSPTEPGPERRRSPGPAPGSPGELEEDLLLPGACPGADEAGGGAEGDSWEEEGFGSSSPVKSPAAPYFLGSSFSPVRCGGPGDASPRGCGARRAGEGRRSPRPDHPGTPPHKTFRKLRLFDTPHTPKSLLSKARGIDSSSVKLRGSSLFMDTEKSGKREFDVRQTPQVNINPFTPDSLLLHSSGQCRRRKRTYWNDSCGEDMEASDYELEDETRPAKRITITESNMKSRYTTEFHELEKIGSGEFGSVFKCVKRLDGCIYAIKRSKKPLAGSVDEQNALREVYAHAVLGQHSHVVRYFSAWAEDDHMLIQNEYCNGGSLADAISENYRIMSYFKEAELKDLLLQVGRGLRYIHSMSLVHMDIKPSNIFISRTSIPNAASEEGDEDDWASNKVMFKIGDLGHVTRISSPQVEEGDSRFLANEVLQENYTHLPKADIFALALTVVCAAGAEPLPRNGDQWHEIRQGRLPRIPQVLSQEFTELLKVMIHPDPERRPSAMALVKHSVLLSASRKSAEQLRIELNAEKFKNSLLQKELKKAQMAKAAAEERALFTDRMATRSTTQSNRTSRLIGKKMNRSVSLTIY
In short: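 Full-length, baculovirus-expressed GST-tagged Wee1A (5 nM) was mixed with 2 nM Eu-anti-GST antibody, 30 nM kinase tracer 178 and compound (1% DMSO). Buffer was 50 mM HEPES pH 7.5, 10 mM MgCl2, 1 mM EGTA, 0.01% Brij-35, incubated 60 min at room temperature. TR-FRET 665/615 nm emission ratios from duplicates were curve-fitted.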

[2] = molecular target: T2, Myt1 kinase (recombinant PMYT-1) (Homo sapiens, UniProt Q99640); assay: Myt1 kinase binding assay (LanthaScreen Eu Kinase Binding Assay)
T2 construct: full length PMYT-1 was expressed by baculovirus in insect cells; purchased Invitrogen A30984; host or cells: insect cells (baculovirus)
T2 sequence (Q99640 1-499): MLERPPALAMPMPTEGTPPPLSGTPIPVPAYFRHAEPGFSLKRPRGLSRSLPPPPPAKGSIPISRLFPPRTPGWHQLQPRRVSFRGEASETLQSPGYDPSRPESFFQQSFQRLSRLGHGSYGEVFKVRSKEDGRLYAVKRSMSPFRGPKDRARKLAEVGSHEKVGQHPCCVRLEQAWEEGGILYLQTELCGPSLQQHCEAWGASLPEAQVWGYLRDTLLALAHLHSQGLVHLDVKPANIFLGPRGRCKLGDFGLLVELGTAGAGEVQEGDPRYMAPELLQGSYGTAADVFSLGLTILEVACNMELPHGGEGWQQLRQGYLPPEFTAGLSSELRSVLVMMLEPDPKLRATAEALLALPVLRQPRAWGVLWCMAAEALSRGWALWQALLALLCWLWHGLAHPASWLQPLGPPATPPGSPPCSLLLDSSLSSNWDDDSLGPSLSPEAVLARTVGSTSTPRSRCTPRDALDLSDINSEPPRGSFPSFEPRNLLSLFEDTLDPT
In short: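 The binding affinity of compounds for Myt1 kinase was measured with a LanthaScreen Europium (Eu) Kinase Binding Assay, a time-resolved FRET format in which test compounds compete against a labeled kinase tracer, and the results were expressed as IC50 values describing compound binding to Myt1.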

[3] = molecular target: T3, Wee1A kinase (CDK1 Tyr15 phosphorylation in ACHN renal cell carcinoma cells) (Homo sapiens, UniProt P30291); assay: High-content imaging of pCdk1 Y15, Wee1A kinase target engagement in ACHN cells; format: cell-based
T3 construct: pCDK1 Tyr15 immunofluorescence read-out
T3 sequence (P30291 whole entry): as the sequence (P30291 whole entry) above
In short: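 ACHN cells exposed to compound for 4 h over 7–5,000 nM or 0.3–200 nM, then fixed and immunostained for pCDK1 Y15 with DAPI nuclear counterstain. The percentage of pCdk1 Y15 nucleus-positive cells relative to DMSO control was imaged per well; EC50 from dose-response curves.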

[4] = system: ACHN cells; assay: Cell Titer Glo viability assay, ACHN cells; format: cell-based; conditions: Homo sapiens, 144 h, absolute EC50
Experimental: Each of an ACHN renal cell carcinoma cell line (ATCC) and a DAOY medulloblastoma cell line, and an A427 lung cancer line were cultured in Minimum Essential Medium Eagle supplemented with 10% fetal calf serum (Sigma), 1% Penicillin-Streptomycin and 10 mM HEPES buffer (HyClone). Cell cultures were kept in a humidified incubator at 37 °C and 5% CO2. Cells were routinely tested for Mycoplasma contamination.
ACHN cells, DAOY cells, or A427 cells were seeded at a density of 400, 250, or 500 cells per well respectively, in tissue culture treated 384 well plates (Corning Costar). After overnight incubation, cells were treated with drugs at concentrations ranging from 17 to 10 000 nM. Viability compared to untreated control was assessed at 144 h using Cell Titer Glo assay 2.0 (Promega). […] “NT” means the compounds was not tested in the indicated cells.

[5] = 30 nM tracer 178, 5 nM Wee1A kinase, 2 nM Eu-labeled antibody, 60 minutes at room temperature, read-out: Wee1A kinase Binding IC50
[6] = 3 nM tracer 178, 2.5 nM PMYT-1, 1 nM Eu-labeled antibody, read-out: Myt1 kinase Binding IC50
[7] = 4 h treatment, nuclear positivity for pCdk1 Y15 vs DMSO control, read-out: CDK1 Tyr15 Phosphorylation EC50

Row | pIC50 [1, 5] | pIC50 [2, 6] | pEC50 [3, 7] | pEC50 [4] | pIC50 [1] | pIC50 ([2]; Myt1 kinase Binding IC50, 3 nM tracer 178, 2.5 nM PMYT-1, 1 nM Eu-labeled antibody) | pEC50 ([3]; read-out: CDK1 Tyr15 Phosphorylation EC50, 4 h treatment, nuclear positivity for pCdk1 Y15 vs DMSO control) | Compound
1 | > 8.00 | 6.30 to 7.00 | > 7.00 | 6.30 to 7.00 |  |  |  | C=CCn1c(=O)c2cnc(Nc3ccc4c(cnn4C)c3)nc2n1-c1cccc(O[C@H]2CCCN(C)C2)n1 [Compound 332, 1-{6-[(S)-1-methyl-3-piperidyloxy]-2-pyridyl}-2-allyl-6-(1-methyl-1H-indazol-5-ylamino)-1,2-dihydro-3H-1,2,5,7-tetraazainden-3-one]
2 | > 8.00 | 6.30 to 7.00 | > 7.00 | ≥ 7.00 |  |  |  | C=CCn1c(=O)c2cnc(Nc3ccc4c(cnn4C)c3)nc2n1-c1cccc(OC2CCN(C)CC2)c1 [Compound 220, 2-allyl-6-(1-methyl-1H-indazol-5-ylamino)-1-[m-(1-methyl-4-piperidyloxy)phenyl]-1,2-dihydro-3H-1,2,5,7-tetraazainden-3-one]
3 | > 8.00 | > 7.70 | > 7.00 | ≥ 7.00 |  |  |  | C=CCn1c(=O)c2cnc(Nc3ccc(OCC(F)(F)F)cc3)nc2n1-c1cccc(OC2CCNCC2)n1 [Compound 227, 2-allyl-1-[6-(4-piperidyloxy)-2-pyridyl]-6-[p-(2,2,2-trifluoroethoxy)phenylamino]-1,2-dihydro-3H-1,2,5,7-tetraazainden-3-one]
4 | > 8.00 | 7.00 to 7.70 | 6.30 to 7.00 | 6.30 to 7.00 |  |  |  | CCn1c(=O)c2cnc(Nc3ccc4c(cnn4C)c3)nc2n1-c1cccc(OC2CCNCC2)n1 [Compound 306, 2-ethyl-6-(1-methyl-1H-indazol-5-ylamino)-1-[6-(4-piperidyloxy)-2-pyridyl]-1,2-dihydro-3H-1,2,5,7-tetraazainden-3-one]
5 | > 8.00 | 7.00 to 7.70 | > 7.00 | ≥ 7.00 |  |  |  | C=CCn1c(=O)c2cnc(Nc3ccc(OCC(F)(F)F)cc3)nc2n1-c1ccnc(NC2CCN(C)CC2)n1 [Compound 314, 2-allyl-1-[2-(1-methyl-4-piperidylamino)-4-pyrimidinyl]-6-[p-(2,2,2-trifluoroethoxy)phenylamino]-1,2-dihydro-3H-1,2,5,7-tetraazainden-3-one]
6 | > 8.00 | < 6.30 | > 7.00 | 6.30 to 7.00 |  |  |  | C=CCn1c(=O)c2cnc(Nc3ccc4c(cnn4C)c3)nc2n1-c1cccc(NC2CCN(C)CC2)c1 [Compound 226, 2-allyl-6-(1-methyl-1H-indazol-5-ylamino)-1-[m-(1-methyl-4-piperidylamino)phenyl]-1,2-dihydro-3H-1,2,5,7-tetraazainden-3-one]
7 | > 8.00 | 7.00 to 7.70 | > 7.00 | 6.30 to 7.00 |  |  |  | C=CCn1c(=O)c2cnc(Nc3ccc(F)cc3)nc2n1-c1cccc(OC2CCNCC2)n1 [Compound 304, 2-allyl-6-(p-fluorophenylamino)-1-[6-(4-piperidyloxy)-2-pyridyl]-1,2-dihydro-3H-1,2,5,7-tetraazainden-3-one]
8 | > 8.00 | 6.30 to 7.00 | > 7.00 | ≥ 7.00 |  |  |  | C=CCn1c(=O)c2cnc(Nc3ccc(F)c(C)c3)nc2n1-c1cccc(NC2CCN(C)CC2)n1 [Compound 140, 2-allyl-6-(4-fluoro-3-toluidino)-1-[6-(1-methyl-4-piperidylamino)-2-pyridyl]-1,2-dihydro-3H-1,2,5,7-tetraazainden-3-one]
9 |  |  |  | ≥ 7.00 | > 8.00 | < 6.30 | > 7.00 | C=CCn1c(=O)c2cnc(Nc3ccc4c(cnn4C)c3)nc2n1-c1cccc(N(C)C2CCN(C)CC2)n1 [Compound 118, 1-{6-[N-methyl(1-methyl-4-piperidyl)amino]-2-pyridyl}-2-allyl-6-(1-methyl-1H-indazol-5-ylamino)-1,2-dihydro-3H-1,2,5,7-tetraazainden-3-one]
10 | > 8.00 | 7.00 to 7.70 | > 7.00 | 6.30 to 7.00 |  |  |  | C=CCn1c(=O)c2cnc(Nc3ccc4c(cnn4C)c3)nc2n1-c1cccc(N[C@H]2CCN(C)C2)n1 [Compound 108, 1-{6-[(S)-1-methyl-3-pyrrolidinylamino]-2-pyridyl}-2-allyl-6-(1-methyl-1H-indazol-5-ylamino)-1,2-dihydro-3H-1,2,5,7-tetraazainden-3-one]
11 | > 8.00 | 6.30 to 7.00 | 6.30 to 7.00 | 6.30 to 7.00 |  |  |  | C=CCn1c(=O)c2cnc(Nc3ccc(OCC(F)(F)F)cc3)nc2n1-c1cccc(NC2CCN(C)CC2)n1 [Compound 139, 2-allyl-1-[6-(1-methyl-4-piperidylamino)-2-pyridyl]-6-[p-(2,2,2-trifluoroethoxy)phenylamino]-1,2-dihydro-3H-1,2,5,7-tetraazainden-3-one]
12 | > 8.00 | 6.30 to 7.00 | > 7.00 | 6.30 to 7.00 |  |  |  | CCn1c(=O)c2cnc(Nc3cccc(C)c3)nc2n1-c1cccc(OC2CCN(C)CC2)n1 [Compound 289, 2-ethyl-1-[6-(1-methyl-4-piperidyloxy)-2-pyridyl]-6-m-toluidino-1,2-dihydro-3H-1,2,5,7-tetraazainden-3-one]
13 | > 8.00 | 7.00 to 7.70 | > 7.00 | 6.30 to 7.00 |  |  |  | C=CCn1c(=O)c2cnc(Nc3ccc4nc(C)oc4c3)nc2n1-c1cccc(OC2CCNCC2)n1 [Compound 316, 2-allyl-6-(2-methyl-1,3-benzoxazol-6-ylamino)-1-[6-(4-piperidyloxy)-2-pyridyl]-1,2-dihydro-3H-1,2,5,7-tetraazainden-3-one]
14 | > 8.00 | 6.30 to 7.00 | > 7.00 | ≥ 7.00 |  |  |  | C=CCn1c(=O)c2cnc(Nc3ccc(OCC(F)(F)F)c(C)c3)nc2n1-c1cccc(NC2CCN(C)CC2)n1 [Compound 181, 2-allyl-1-[6-(1-methyl-4-piperidylamino)-2-pyridyl]-6-[4-(2,2,2-trifluoroethoxy)-3-toluidino]-1,2-dihydro-3H-1,2,5,7-tetraazainden-3-one]
15 | > 8.00 | 7.00 to 7.70 | > 7.00 | 6.30 to 7.00 |  |  |  | Cn1ccc2cc(Nc3ncc4c(=O)n(C)n(-c5cccc(OC6CCNCC6)n5)c4n3)ccc21 [Compound 336, 2-methyl-6-((1-methyl-1H-indol-5-yl)amino)-1-(6-(piperidin-4-yloxy)pyridin-2-yl)-1,2-dihydro-3H-pyrazolo[3,4-d]pyrimidin-3-one]
16 | > 8.00 | 7.00 to 7.70 | > 7.00 | 6.30 to 7.00 |  |  |  | C=CCn1c(=O)c2cnc(Nc3ccc(OCC(F)(F)F)cc3)nc2n1-c1ccnc(OC2CCNCC2)n1 [Compound 252, 2-allyl-1-(2-(piperidin-4-yloxy)pyrimidin-4-yl)-6-((4-(2,2,2-trifluoroethoxy)phenyl)amino)-1,2-dihydro-3H-pyrazolo[3,4-d]pyrimidin-3-one]
17 | > 8.00 | 7.00 to 7.70 | 6.30 to 7.00 | 6.30 to 7.00 |  |  |  | C=CCn1c(=O)c2cnc(Nc3ccc4ccncc4c3)nc2n1-c1cccc(OC2CCNCC2)n1 [Compound 240, 2-allyl-6-(7-isoquinolylamino)-1-[6-(4-piperidyloxy)-2-pyridyl]-1,2-dihydro-3H-1,2,5,7-tetraazainden-3-one]
18 | > 8.00 | < 6.30 | > 7.00 | 6.30 to 7.00 |  |  |  | CCn1c(=O)c2cnc(Nc3ccc4c(cnn4C)c3)nc2n1-c1cccc(NC2CCN(C)CC2)n1 [Compound 288, 2-ethyl-6-[(1-methyl-1H-indazol-5-yl)amino]-1-{6-[(1-methylpiperidin-4-yl)amino]pyridin-2-yl}-1H,2H,3H-pyrazolo[3,4-d]pyrimidin-3-one]
